pKi: −log10 of the molar value.
Tests used:
[1] = target: Alpha-2 adrenergic receptor (Rattus norvegicus); experiment: Displacement of [3H]clonidine from adrenergic alpha-2 receptor in Sprague-Dawley rat cortex
Homo sapiens = organism: Homo sapiens; experiment: Selectivity of Ki for human PNMT over Ki for rat alpha2 adrenoceptor
[2] = target: T1, Phenylethanolamine N-methyltransferase (Homo sapiens, UniProt P11086); experiment: Inhibition of human PNMT by radiochemical assay
T1 sequence (P11086 whole entry): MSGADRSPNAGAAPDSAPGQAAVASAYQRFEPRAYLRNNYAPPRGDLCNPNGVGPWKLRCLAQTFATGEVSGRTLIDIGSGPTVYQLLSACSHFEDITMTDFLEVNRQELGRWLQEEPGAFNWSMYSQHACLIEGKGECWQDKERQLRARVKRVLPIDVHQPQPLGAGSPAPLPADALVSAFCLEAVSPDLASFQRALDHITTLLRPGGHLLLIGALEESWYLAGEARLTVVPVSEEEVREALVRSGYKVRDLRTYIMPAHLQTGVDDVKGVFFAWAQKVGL

[3] = target: Phenylethanolamine N-methyltransferase (Homo sapiens) (UniProt P11086); experiment: Inhibition of human PNMT by radiochemical assay

Compound: C[C@H]1Cc2sc([N+](=O)[O-])cc2CN1
- pKi [1]: 4.54

Compound: CC1Cc2ccc(Br)cc2CN1 (racemic)
- pKi [1]: 5.96

Compound: N#Cc1cc2c(s1)CCNC2
- pKi [1]: 4.80

Compound: FC(F)(F)C1Cc2sc3ccccc3c2CN1 (stereo not drawn)
- pKi [1]: < 3.30

Compound: NCc1ccsc1
- Ratio Ki (Homo sapiens): 0.29
- pKi [1]: 4.49
- pKi [2]: 3.96

Compound: CC(=O)c1cc2c(s1)CCNC2
- pKi [1]: 5.01

Compound: FC(F)(F)C1CC2SC=CC2CN1 (stereo not drawn)
- pKi [1]: 2.82

Compound: c1cc2c(s1)CCNC2
- pKi [1]: 5.82

Compound: BrC1=CC2CNCCC2S1 (stereo not drawn)
- pKi [1]: 6.42

Compound: C[C@@H]1Cc2sc(C#N)cc2CN1
- pKi [1]: 4.33

Compound: NCCc1ccccc1 [PHENETHYLAMINE]
- pKi [3]: 3.66

Compound: CC1Cc2sc3ccccc3c2CN1 (racemic)
- pKi [3]: 7.17

Compound: Cc1cc2c(s1)CCNC2
- pKi [1]: 6.31

Compound: C[C@@H]1Cc2sc([N+](=O)[O-])cc2CN1
- pKi [1]: 4.89

Compound: CC1Cc2ccccc2CN1 (racemic)
- pKi [3]: 5.85

Compound: FC(F)(F)C1Cc2sc(Br)cc2CN1 (stereo not drawn)
- pKi [1]: < 3.00

Compound: CC1CC2SC=CC2CN1 (stereo not drawn)
- pKi [1]: 4.54

Compound: NC(=O)c1ccc2c(c1)CNCC2
- pKi [3]: 4.14

Compound: c1ccc2c(c1)CCNC2 [1,2,3,4-TETRAHYDROISOQUINOLINE]
- pKi [3]: 5.30

Compound: O=[N+]([O-])C1=CC2CNCCC2S1 (stereo not drawn)
- pKi [1]: 4.74

Compound: Cc1ccc2c(c1)CNCC2
- pKi [3]: 5.70

Compound: NC(=O)c1cc2c(s1)CCNC2
- pKi [1]: 5.39

Compound: CC(=O)c1ccc2c(c1)CNCC2
- pKi [3]: 5.30

Compound: NCCc1cccs1
- Ratio Ki (Homo sapiens): 0.004
- pKi [1]: 5.92
- pKi [2]: 3.52

Compound: C[C@H]1Cc2sc(C#N)cc2CN1
- pKi [1]: 3.89

Compound: CC1Cc2sc(Br)cc2CN1 (stereo not drawn)
- pKi [1]: 5.64

Compound: NCc1cccs1
- Ratio Ki (Homo sapiens): 0.12
- pKi [1]: 4.57
- pKi [2]: 3.35

Reference: ChEMBL document CHEMBL1140786, “Synthesis of 4,5,6,7-tetrahydrothieno[3,2-c]pyridines and comparison with their isosteric 1,2,3,4-tetrahydroisoquinolines as inhibitors of phenylethanolamine N-methyltransferase” (Bioorg Med Chem, 2008)
